Laboratory results reported in BindingDB's records for PubMed 2139469 (University of Nebraska, 1990).
Where a name gives a salt, the structure may show the parent alone.

Biological target: D(1A) dopamine receptor (Bos taurus, UniProt Q95136)
Sequence (Q95136 whole entry): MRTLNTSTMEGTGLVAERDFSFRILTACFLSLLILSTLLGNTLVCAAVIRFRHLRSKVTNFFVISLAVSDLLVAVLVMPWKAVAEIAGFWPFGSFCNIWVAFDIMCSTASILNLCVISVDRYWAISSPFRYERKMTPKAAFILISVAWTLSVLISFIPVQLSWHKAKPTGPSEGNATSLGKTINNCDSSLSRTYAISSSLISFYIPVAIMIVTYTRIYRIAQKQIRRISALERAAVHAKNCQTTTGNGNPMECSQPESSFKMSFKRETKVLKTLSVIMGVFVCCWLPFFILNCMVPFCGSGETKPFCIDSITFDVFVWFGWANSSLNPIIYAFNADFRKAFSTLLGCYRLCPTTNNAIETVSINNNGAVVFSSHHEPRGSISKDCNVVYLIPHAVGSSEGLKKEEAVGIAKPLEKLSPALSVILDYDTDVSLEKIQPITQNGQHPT

Compound	Ki
CC[C@@H](CO)NC(=O)[C@@H]1C=C2c3cccc4c3c(cn4C)C[C@H]2N(C)C1	1580 nM
O=c1[nH]c2ccccc2n1CCCN1CCC(n2c(=O)[nH]c3cc(Cl)ccc32)CC1	2040 nM
O=C(c1ccc(F)cc1)C1CCN(CCn2c(=O)[nH]c3ccccc3c2=O)CC1 [3-(2-{4-[(4-fluorophenyl)carbonyl]piperidin-1-yl}ethyl)-1,2,3,4-tetrahydroquinazoline-2,4-dione]	395 nM
O=C(CCCN1CCC(O)(c2ccc(Cl)cc2)CC1)c1ccc(F)cc1 [4-[4-(4-Chloro-phenyl)-4-hydroxy-piperidin-1-yl]-1-(4-fluoro-phenyl)-butan-1-one;propionate(HCl)]	315 nM
CSc1ccc2c(c1)N(CC[C@@H]1CCCCN1C)c1ccccc1S2 [10-[2-(1-Methyl-piperidin-2-yl)-ethyl]-2-methylsulfanyl-10H-phenothiazine (thioridazine)]	75.4 nM
CN1[C@@H]2CC[C@H]1CC(OC(=O)[C@H](CO)c1ccccc1)C2 (some centres not stated) [CAS_51-55-8]	> 10000 nM
CN(C)CCCSc1ccccc1NC(=O)/C=C/c1ccccc1 [CINANSERIN]	2090 nM
OCCC1CCN(CC/C=C2/c3ccc(F)cc3Sc3ccc(C(F)(F)F)cc32)CC1 [Lu 12-331]	0.29 nM
CN1CCN2c3ccccc3Cc3ccccc3[C@H]2C1 [MIANSERIN (+)]	318 nM
CCN1CCCC1CNC(=O)c1cc(S(N)(=O)=O)ccc1OC (configuration not stated) [N-[(1-ethylpyrrolidin-2-yl)methyl]-2-methoxy-5-sulfamoylbenzamide]	> 10000 nM
Cc1ccc(N(CC2=NCCN2)c2cccc(O)c2)cc1 [SMR000059054]	> 10000 nM
C=CCN1CC[C@]23c4c5ccc(O)c4O[C@H]2C(=O)CC[C@@]3(O)[C@H]1C5 [[17-(2,3-3H-2-propenyl)]-4,5a-epoxy-3,14-dihydroxymorphinan-6-one]	> 10000 nM
